In data set [1] the test system is mouse. As to conditions: Subchronic oral toxicity in rodents, other, Feed, dose end: 13 week, group: systemic, systemic / clinical chemistry / [other] / [other] + systemic / clinical chemistry / alderin epoxidase / alderin epoxidase + systemic / ….
The subject of data set [2] is mouse. As to conditions: Combined chronic toxicity/carcinogenicity; other; Oral; Feed; dose end: 104 week; group: systemic; systemic / pathology microscopic / blood / leukemia + systemic / pathology microscopic / blood / lymphoma nos + systemic / pathology ….
Data set [3] deals with rat. The settings on record: Subchronic oral toxicity in rodents, wistar, [Not Specified], dose end: 6 month.
Data set [4] relates to dog. As to conditions: Chronic toxicity, beagle, Oral, Feed, dose end: 52 week.
In data set [5] the test system is rat. The settings on record: Prenatal developmental toxicity study, sprague dawley, Oral, Gavage/Intubation, dose end: 15 GD.
The subject of data set [6] is rat. The settings on record: Chronic toxicity; wistar; Oral; Feed; dose end: 92 week; group: cholinesterase; cholinesterase / cholinesterase / cholinesterase / erythrocyte cholinesterase (che) + cholinesterase / cholinesterase / cholinesterase / ….
Data set [7] deals with rabbit. The settings on record: Sub-acute repeat dose toxicity, Oral, Gavage/Intubation, dose end: 5 day, group: systemic.
Data set [8] has as its system rabbit. As to conditions: Sub-acute repeat dose toxicity; Oral; Gavage/Intubation; dose end: 5 day; group: systemic; systemic / in life observation / food consumption / food consumption.
Data set [9] relates to rabbit. As to conditions: Prenatal developmental toxicity study, new zealand white, Oral, Gavage/Intubation, dose end: 19 GD.
Data set [10] concerns rat. As to conditions: Subchronic oral toxicity in rodents, sprague dawley, Gavage/Intubation, dose end: 13 week, group: systemic, systemic / clinical chemistry / thyroxine (t4) / thyroxine (t4), total + systemic / organ weight / thyroid gland / absolute + systemic / ….
The subject of data set [11] is rat. The settings on record: Subchronic dermal toxicity, sprague dawley, Topical, dose end: 21 day, group: systemic.
[12] abbreviates: group: cholinesterase, cholinesterase / cholinesterase / cholinesterase / brain cholinesterase (che) + cholinesterase / cholinesterase / cholinesterase / ….
Setting [13] is: group: systemic, systemic / clinical chemistry / glucose / glucose + systemic / organ weight / liver / nos + systemic / organ weight / liver / relative to ….
The mark [14] stands for this setting: group: systemic, systemic / organ weight / brain / nos + systemic / organ weight / kidney / nos.
The mark [15] stands for this setting: group: cholinesterase, cholinesterase / cholinesterase / cholinesterase / plasma cholinesterase (che).
The mark [16] stands for this setting: group: systemic, systemic / pathology microscopic / lymph node / hemorrhage.
The mark [17] stands for this setting: group: systemic, systemic / pathology microscopic / lymph node / hemorrhage + systemic / pathology microscopic / lymph node / hyperplasia.
Setting [18] is: group: developmental, developmental / developmental malformation / bone / short.
Setting [19] is: group: maternal, systemic / in life observation / body weight / body weight + systemic / in life observation / body weight / body weight gain + systemic / in….
Setting [20] is: systemic / in life observation / body weight / body weight + systemic / in life observation / food consumption / food consumption.
The mark [21] stands for this setting: systemic / in life observation / food consumption / food consumption.
Where [22] appears, read: group: developmental, developmental / developmental malformation / brain / hydrocephaly + developmental / developmental malformation / mouth / jaw / cleft palate….
The mark [23] stands for this setting: group: maternal, systemic / in life observation / body weight / body weight gain + systemic / in life observation / food consumption / food consumption + ….
The mark [24] stands for this setting: systemic / clinical chemistry / triiodothyronine (t3) / triiodothyronine (t3), total.

Regarding `CC(=O)O[C@]1(C(C)=O)CC[C@H]2[C@@H]3C=C(Cl)C4=CC(=O)[C@@H]5C[C@@H]5[C@]4(C)[C@H]3CC[C@@]21C` [Cyproterone acetate], in data set [1], the LEL turned out to be 125 mg/kg/day, the LOAEL was > 125 mg/kg/day, the NEL was < 125 mg/kg/day and the NOAEL is ≥ 125 mg/kg/day. Besides, in data set [2], the LEL worked out at 120 mg/kg/day, the LOAEL was > 120 mg/kg/day, the NEL was < 120 mg/kg/day and the NOAEL was ≥ 120 mg/kg/day.

As for `COP(=S)(OC)Oc1ccc([N+](=O)[O-])c(C)c1` [Fenitrothion], the LEL came out at 2 mg/kg/day in data set [3] (setting [12]); 0.59 mg/kg/day in data set [3] (setting [14]); 0.25 mg/kg/day in data set [4] (setting [15]); 0.25 mg/kg/day in [4] (setting [16]); 25 mg/kg/day in [5] (setting [18]); 25 mg/kg/day in data set [5] (setting [19]). In addition, in data set [6], the LEL is 0.27 mg/kg/day. In addition, the LOAEL came to 9.16 mg/kg/day in data set [3] (setting [12]); 2 mg/kg/day in [3] (setting [13]); 0.25 mg/kg/day in data set [4] (setting [15]); 0.25 mg/kg/day in [4] (setting [16]); 25 mg/kg/day in data set [5] (setting [18]); 25 mg/kg/day in data set [5] (setting [19]). Also, the LOAEL in data set [6] was determined as 0.27 mg/kg/day. Besides, the NEL is 0.64 mg/kg/day in [3] (setting [12]); < 0.59 mg/kg/day in data set [3] (setting [14]); 0.125 mg/kg/day in data set [4] (setting [15]); 0.125 mg/kg/day in [4] (setting [17]); 8 mg/kg/day in data set [5] (setting [18]); 8 mg/kg/day in [5] (setting [19]). Also, the NEL in data set [6] was found to be 0.128 mg/kg/day. For the same molecule, the no-observed-adverse-effect level (NOAEL) in data set [3] (setting [12]) was 1.83 mg/kg/day; in data set [3] (setting [13]), 0.64 mg/kg/day; in data set [4] (setting [15]) it was 0.125 mg/kg/day; in [4] (setting [17]) it was 0.125 mg/kg/day; in data set [5] (setting [18]) it was 8 mg/kg/day; in [5] (setting [19]) it was 8 mg/kg/day. For the same molecule, the NOAEL in [6] was 0.128 mg/kg/day.

Take `O=C(N[C@@H](Cc1ccccc1)[C@@H](O)C(=O)N1C[C@@H](O)[C@@H](O)C1)c1cc2cc(Cl)ccc2[nH]1` [Ingliforib]: in data set [7] (setting [20]), the LOAEL is > 500 mg/kg/day and the NOAEL was ≥ 500 mg/kg/day. Also, in data set [7] (setting [21]), the LEL came out at 50 mg/kg/day and the NEL is < 50 mg/kg/day. Also, in [8], the LEL was 250 mg/kg/day, the LOAEL was > 500 mg/kg/day, the NEL was < 250 mg/kg/day and the no observed adverse effect level (NOAEL) was ≥ 500 mg/kg/day.

On to `S=C([S-])NCCNC(=S)[S-].[Na+].[Na+]` [Nabam-sodium], for which the LEL amounted to 2.62 mg/kg/day in [9] (setting [22]), 32.8 mg/kg/day in data set [9] (setting [23]), 80 mg/kg/day in data set [10] and 15 mg/kg/day in data set [11] (setting [24]). Moreover, the lowest observed adverse effect level (LOAEL) in data set [9] (setting [22]) was 2.62 mg/kg/day; in [9] (setting [23]), 32.8 mg/kg/day; in [10], 80 mg/kg/day; in data set [11] (systemic / in life observation / clinical signs / erythema) it was 150 mg/kg/day. Also, the NEL in data set [9] (setting [22]) was 0.328 mg/kg/day; in [9] (setting [23]) it was 2.62 mg/kg/day; in data set [10] it was 0.8 mg/kg/day; in data set [11] (setting [24]) it was < 15 mg/kg/day. Besides, the NOAEL is 0.328 mg/kg/day in data set [9] (setting [22]); 2.62 mg/kg/day in data set [9] (setting [23]); 0.8 mg/kg/day in [10]; 15 mg/kg/day in data set [11] (systemic / clinical chemistry / triiodothyronine (t3) / triiodothyronine (t3), total + systemic / in life observation / clinical signs / …).

As a reminder, the LOAEL is the lowest tested level that showed an adverse finding. The term NOAEL denotes the highest dose or exposure tested at which no adverse effect was seen.
